Consider four compounds from PMC7026418, “The kinase polypharmacology landscape of clinical PARP inhibitors” (Scientific Reports, 2020).

Read-outs that look alike come from different tables or passages of the source.

Targets include ALK (Homo sapiens, UniProt Q9UM73); ERBB4 (Homo sapiens, UniProt Q15303); MELK (Homo sapiens, UniProt Q14680); PLK2 (Homo sapiens, UniProt Q9NYY3).
What all share (assay): biochemical
Common to all, as to set-up: DiscoveRx KINOMEscan active site-directed competition binding; percent of control kinase bound to immobilised ligand

In the next assay the target is T1, BRSK1 (Homo sapiens, UniProt Q8TDC3).
T1 sequence (Q8TDC3 1-778): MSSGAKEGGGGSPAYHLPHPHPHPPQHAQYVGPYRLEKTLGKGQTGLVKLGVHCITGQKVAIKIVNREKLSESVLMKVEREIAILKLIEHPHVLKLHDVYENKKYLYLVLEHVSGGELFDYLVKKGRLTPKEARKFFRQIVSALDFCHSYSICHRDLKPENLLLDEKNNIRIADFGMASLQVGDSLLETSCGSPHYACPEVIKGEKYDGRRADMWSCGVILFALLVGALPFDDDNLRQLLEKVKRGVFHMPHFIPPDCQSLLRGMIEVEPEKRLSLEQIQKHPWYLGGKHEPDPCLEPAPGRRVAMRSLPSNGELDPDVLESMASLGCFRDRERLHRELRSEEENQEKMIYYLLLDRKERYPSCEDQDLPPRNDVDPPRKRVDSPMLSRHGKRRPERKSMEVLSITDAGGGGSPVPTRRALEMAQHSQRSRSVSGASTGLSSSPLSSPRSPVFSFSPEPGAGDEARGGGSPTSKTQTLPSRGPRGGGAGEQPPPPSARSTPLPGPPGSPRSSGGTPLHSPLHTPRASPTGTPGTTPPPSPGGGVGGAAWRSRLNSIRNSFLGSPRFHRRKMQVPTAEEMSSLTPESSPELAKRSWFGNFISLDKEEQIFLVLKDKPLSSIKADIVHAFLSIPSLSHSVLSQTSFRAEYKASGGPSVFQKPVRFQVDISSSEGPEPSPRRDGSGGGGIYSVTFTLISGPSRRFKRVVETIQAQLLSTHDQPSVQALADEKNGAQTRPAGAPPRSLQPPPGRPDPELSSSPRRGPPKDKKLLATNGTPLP

The next assay concerns the target T2, MST4 (Homo sapiens, UniProt Q9P289).
T2 construct: gene STK26

The target in the next assay is T3, MUSK (Homo sapiens, UniProt O15146).
T3 sequence (O15146 1-869): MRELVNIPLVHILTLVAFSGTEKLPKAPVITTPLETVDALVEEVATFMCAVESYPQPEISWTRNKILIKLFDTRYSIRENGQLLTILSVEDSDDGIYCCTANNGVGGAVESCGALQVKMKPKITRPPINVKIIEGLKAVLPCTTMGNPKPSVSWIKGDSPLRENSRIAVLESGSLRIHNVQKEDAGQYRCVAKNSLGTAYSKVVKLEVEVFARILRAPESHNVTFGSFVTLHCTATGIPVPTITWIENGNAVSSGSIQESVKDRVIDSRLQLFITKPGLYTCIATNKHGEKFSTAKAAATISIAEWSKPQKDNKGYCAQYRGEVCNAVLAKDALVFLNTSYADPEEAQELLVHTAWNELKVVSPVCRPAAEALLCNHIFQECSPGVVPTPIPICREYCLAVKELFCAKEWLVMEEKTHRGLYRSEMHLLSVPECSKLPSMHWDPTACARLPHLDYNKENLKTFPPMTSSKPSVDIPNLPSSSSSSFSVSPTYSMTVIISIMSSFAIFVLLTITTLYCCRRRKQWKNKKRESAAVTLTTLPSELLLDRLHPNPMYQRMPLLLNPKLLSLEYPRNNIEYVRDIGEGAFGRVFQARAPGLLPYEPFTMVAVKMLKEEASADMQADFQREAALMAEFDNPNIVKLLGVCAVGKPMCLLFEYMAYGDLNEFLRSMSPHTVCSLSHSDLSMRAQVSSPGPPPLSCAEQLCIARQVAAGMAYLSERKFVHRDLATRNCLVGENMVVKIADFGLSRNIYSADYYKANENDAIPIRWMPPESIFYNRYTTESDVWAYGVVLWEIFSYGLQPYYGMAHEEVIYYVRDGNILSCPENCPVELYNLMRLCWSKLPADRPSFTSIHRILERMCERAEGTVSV

The target of assay [1] is T4, TYK2(JH1domain-catalytic) (Homo sapiens, UniProt P29597).
T4 construct: JH1domain-catalytic
T4 sequence (P29597 whole entry): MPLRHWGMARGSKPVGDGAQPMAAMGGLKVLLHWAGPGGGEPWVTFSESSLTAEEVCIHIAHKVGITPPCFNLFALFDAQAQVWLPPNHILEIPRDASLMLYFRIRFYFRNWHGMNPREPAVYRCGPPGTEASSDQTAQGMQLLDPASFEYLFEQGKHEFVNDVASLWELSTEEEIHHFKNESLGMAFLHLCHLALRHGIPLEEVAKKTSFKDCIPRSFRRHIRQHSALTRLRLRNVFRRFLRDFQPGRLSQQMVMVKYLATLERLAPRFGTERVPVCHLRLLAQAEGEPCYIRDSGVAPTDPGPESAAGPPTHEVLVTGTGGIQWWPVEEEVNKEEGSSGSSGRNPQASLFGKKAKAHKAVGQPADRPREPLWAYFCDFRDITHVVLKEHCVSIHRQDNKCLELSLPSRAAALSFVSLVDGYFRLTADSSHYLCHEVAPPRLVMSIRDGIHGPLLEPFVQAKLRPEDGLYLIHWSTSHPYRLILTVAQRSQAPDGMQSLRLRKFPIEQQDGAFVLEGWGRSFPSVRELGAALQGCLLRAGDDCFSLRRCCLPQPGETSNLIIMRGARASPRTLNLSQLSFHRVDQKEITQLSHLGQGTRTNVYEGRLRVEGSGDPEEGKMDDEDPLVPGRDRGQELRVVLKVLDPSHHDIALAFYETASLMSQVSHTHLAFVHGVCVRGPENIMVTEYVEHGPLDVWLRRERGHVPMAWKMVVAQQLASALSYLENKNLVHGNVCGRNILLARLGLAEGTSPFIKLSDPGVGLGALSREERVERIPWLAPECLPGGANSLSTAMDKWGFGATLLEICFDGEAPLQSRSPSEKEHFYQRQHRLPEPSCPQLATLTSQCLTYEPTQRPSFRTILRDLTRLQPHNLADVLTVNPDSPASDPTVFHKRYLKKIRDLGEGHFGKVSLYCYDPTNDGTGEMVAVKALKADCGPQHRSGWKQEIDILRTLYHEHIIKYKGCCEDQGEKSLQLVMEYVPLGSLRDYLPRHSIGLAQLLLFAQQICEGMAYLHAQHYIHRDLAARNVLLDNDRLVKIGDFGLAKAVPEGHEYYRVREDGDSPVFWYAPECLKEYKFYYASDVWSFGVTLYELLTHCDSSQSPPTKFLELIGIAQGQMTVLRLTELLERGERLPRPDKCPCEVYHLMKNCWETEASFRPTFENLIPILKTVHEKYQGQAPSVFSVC

[2] abbreviates: read-out: Niraparib (MK-4827) / %Ctrl @ 10000nM.
[3] abbreviates: read-out: Talazoparib (BMN 673) / %Ctrl @ 10000nM.
Setting [4] is: read-out: Rucaparib / %Ctrl @ 10000nM, binding competition, % of control.
Where [5] appears, read: read-out: Olaparib / %Ctrl @ 10000nM.

Chain of PLK2 (Q9NYY3 whole entry): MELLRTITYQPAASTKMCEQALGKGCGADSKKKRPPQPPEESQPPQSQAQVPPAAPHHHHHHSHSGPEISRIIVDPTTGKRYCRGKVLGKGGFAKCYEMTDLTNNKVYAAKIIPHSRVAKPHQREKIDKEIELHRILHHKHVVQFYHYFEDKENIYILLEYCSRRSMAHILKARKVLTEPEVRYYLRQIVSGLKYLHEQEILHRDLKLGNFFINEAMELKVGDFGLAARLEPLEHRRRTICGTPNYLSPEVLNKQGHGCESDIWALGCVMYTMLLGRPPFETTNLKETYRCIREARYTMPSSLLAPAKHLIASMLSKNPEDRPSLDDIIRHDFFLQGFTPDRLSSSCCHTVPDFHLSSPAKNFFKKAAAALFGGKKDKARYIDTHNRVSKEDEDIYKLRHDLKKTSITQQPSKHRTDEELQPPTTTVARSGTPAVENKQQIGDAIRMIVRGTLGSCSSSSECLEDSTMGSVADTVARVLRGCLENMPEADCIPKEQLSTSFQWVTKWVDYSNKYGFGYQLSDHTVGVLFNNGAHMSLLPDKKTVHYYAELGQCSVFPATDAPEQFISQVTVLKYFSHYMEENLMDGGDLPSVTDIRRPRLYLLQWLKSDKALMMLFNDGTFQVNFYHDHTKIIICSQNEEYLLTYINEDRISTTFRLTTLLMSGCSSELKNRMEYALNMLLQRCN
Chain of ERBB4 (Q15303 whole entry): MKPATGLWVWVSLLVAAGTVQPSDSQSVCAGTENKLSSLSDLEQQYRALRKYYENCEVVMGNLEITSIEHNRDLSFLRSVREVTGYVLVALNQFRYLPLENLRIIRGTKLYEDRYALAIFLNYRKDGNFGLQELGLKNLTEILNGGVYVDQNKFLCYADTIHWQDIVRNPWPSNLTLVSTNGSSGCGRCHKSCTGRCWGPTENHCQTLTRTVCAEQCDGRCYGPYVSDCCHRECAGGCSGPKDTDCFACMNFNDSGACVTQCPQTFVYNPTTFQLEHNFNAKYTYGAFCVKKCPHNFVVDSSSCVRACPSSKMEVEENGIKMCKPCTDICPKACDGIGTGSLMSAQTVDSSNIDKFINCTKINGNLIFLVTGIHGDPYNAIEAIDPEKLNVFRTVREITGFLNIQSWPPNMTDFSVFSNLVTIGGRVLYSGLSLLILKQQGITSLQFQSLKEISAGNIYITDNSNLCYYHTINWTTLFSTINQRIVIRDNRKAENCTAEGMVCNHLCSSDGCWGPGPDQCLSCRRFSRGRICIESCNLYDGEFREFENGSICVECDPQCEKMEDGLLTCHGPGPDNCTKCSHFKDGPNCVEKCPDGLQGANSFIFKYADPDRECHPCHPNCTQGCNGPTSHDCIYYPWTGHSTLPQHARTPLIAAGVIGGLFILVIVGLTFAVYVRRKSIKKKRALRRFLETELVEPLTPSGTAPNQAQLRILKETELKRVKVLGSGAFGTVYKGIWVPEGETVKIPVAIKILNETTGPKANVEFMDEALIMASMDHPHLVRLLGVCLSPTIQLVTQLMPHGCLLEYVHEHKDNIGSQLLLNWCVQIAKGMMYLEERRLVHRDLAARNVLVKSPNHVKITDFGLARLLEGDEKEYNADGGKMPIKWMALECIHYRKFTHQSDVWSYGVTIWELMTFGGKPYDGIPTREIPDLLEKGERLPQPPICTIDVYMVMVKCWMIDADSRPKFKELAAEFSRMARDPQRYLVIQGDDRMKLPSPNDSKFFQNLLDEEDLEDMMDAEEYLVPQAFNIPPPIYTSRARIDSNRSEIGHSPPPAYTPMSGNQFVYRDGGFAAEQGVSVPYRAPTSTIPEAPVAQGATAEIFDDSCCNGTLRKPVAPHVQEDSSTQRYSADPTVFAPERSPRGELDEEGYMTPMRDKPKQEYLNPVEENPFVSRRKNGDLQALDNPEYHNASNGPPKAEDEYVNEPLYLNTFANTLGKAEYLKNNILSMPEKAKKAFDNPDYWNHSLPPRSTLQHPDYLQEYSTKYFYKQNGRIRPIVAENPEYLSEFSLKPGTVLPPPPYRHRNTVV
Chain of ALK (Q9UM73 whole entry): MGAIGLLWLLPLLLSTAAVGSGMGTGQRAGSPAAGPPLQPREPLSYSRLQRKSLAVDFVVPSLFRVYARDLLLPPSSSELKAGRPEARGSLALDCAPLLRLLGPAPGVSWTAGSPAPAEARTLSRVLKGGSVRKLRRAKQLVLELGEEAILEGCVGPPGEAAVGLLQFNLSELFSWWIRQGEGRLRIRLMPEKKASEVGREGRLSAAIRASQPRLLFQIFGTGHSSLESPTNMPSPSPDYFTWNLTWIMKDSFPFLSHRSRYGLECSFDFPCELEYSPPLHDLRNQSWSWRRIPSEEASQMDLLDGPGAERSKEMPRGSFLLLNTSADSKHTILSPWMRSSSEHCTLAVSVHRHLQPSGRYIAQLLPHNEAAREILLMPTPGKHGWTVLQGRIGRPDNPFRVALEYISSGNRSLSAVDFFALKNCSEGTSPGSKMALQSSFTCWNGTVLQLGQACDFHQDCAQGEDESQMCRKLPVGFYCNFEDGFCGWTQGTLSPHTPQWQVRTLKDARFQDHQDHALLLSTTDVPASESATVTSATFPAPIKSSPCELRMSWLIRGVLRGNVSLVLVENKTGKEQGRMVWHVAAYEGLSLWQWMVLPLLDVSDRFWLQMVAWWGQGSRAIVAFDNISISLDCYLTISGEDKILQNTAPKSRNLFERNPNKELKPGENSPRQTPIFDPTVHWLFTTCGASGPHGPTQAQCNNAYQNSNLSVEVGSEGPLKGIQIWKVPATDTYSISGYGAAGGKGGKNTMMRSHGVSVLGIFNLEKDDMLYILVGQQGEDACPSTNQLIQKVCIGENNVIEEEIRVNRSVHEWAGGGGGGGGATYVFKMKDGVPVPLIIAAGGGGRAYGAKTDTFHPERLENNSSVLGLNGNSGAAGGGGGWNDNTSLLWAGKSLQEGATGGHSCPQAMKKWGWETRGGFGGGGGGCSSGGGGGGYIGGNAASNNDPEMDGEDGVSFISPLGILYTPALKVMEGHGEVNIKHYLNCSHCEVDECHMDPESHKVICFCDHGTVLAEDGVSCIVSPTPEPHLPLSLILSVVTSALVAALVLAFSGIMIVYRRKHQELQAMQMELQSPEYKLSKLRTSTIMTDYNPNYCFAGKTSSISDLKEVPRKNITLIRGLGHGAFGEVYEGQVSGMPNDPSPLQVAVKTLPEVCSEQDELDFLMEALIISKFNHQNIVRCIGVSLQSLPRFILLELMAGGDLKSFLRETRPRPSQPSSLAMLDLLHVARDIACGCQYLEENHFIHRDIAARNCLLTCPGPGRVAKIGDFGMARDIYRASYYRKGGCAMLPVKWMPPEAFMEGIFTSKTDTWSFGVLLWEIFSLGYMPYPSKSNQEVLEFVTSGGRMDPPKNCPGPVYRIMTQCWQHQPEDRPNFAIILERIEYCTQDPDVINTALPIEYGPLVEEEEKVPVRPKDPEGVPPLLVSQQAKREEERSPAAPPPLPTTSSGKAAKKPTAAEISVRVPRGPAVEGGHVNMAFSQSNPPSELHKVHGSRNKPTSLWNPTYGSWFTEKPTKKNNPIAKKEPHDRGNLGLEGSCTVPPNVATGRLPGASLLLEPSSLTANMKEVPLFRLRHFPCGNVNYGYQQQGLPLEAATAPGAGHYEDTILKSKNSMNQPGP

`NC(=O)c1cccc2cn(-c3ccc([C@@H]4CCCNC4)cc3)nc12` [Niraparib]: the percent of control binding at 10 µM turned out to be 98% on ALK (setting [2]); 92% on BRSK1 (setting [2]); 99% on ERBB4 (setting [2]); 70% on MELK (setting [2]); 64% at MST4 (setting [2]); 82% on MUSK (setting [2]). In addition, the percent of control binding at 10 µM came to 92% at PLK2 (setting [2]) and 96% in assay [1] (setting [2]).
For the compound `Cn1ncnc1[C@H]1c2n[nH]c(=O)c3cc(F)cc(c23)N[C@@H]1c1ccc(F)cc1` [Talazoparib], the percent of control binding at 10 µM is 100% at ALK (setting [3]); 100% on BRSK1 (setting [3]); 91% on ERBB4 (setting [3]); 94% on MELK (setting [3]); 89% on MST4 (setting [3]); 100% at MUSK (setting [3]). The results for the percent of control binding at 10 µM (at PLK2 (setting [3]); in assay [1] (setting [3])) were 100% and 94%, respectively.
For `CNCc1ccc(-c2[nH]c3cc(F)cc4c3c2CCNC4=O)cc1` [Rucaparib], the percent of control binding at 10 µM is 45% on ALK (setting [4]); 74% at BRSK1 (setting [4]); 89% at ERBB4 (setting [4]); 76% at MELK (setting [4]); 67% at MST4 (setting [4]); 96% on MUSK (setting [4]). Moreover, the percent of control binding at 10 µM at PLK2 (setting [4]) was determined as 76%; in assay [1] (setting [4]), 66%.
With `O=C(c1cc(Cc2n[nH]c(=O)c3ccccc23)ccc1F)N1CCN(C(=O)C2CC2)CC1` [Olaparib], the percent of control binding at 10 µM is 86% at ALK (setting [5]); 91% on BRSK1 (setting [5]); 89% at ERBB4 (setting [5]); 90% at MELK (setting [5]); 91% on MST4 (setting [5]); 100% on MUSK (setting [5]). The results for the percent of control binding at 10 µM (at PLK2 (setting [5]); in assay [1] (setting [5])) were 95% and 84%, respectively.
